Measured values as given in US11584744B2 (UNIVERSITY OF WASHINGTON, priority 2017, dated 2023).
≈ marks a conversion by molar mass, not a printed value. Where “and” joins values, the source holds several entries; their conditions need not be identical. Equal values may be shown once. Read-outs that look alike come from different tables or passages of the source.

Experiments:
T. brucei = T. brucei growth inhibition; type: cell-based, Trypanosoma brucei; conditions: read-out: (D) T. brucei EC50
MetRS (C. parvum) = MetRS (C. parvum) (Cryptosporidium parvum, UniProt Q5CVN0); assay: MetRS (C. parvum) enzyme inhibition; type: biochemical; conditions: read-out: (C) MetRS (C. parvum) IC50
MetRS (C. parvum), sequence (Q5CVN0 entry or part of it): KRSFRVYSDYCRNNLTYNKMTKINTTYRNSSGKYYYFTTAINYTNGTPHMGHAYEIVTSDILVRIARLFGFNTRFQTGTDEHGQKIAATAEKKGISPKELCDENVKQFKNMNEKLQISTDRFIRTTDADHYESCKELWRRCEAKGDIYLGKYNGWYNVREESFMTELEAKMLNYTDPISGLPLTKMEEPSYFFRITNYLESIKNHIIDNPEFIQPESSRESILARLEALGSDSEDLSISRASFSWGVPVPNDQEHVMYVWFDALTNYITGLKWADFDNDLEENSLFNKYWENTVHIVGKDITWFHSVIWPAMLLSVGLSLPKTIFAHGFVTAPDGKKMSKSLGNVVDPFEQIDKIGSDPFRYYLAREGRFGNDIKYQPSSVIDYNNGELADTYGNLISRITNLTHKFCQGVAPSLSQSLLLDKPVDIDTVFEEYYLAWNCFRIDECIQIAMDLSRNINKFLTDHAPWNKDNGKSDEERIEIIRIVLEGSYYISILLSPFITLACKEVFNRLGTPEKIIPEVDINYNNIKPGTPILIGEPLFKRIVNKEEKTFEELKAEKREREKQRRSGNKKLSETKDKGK

[1] = system: S. aureus MSSA (ATCC 29213); assay: MIC susceptibility testing; type: cell-based, Staphylococcus aureus; conditions: S. aureus ATCC 29213; for MIC: Staphylococcus aureus, read-out: (F) S. aureus (ATCC 29213) MIC
[2] = system: S. aureus MRSA (ATCC 33591); assay: MIC susceptibility testing; type: cell-based, Staphylococcus aureus; conditions: MRSA ATCC33591; for MIC: Staphylococcus aureus, read-out: (G) MRSA (ATCC33591) MIC
In short: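 CLSI broth microdilution with two-fold compound dilutions, in triplicate; cells added in medium at 1×10^6 CFUs/mL, DMSO ≤0.5%. Media: MHB for S. aureus, CA-MHB for E. coli and E. faecium, CA-MHB plus 3% laked horse blood for S. pyogenes (5% CO2).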

MetRS (T. brucei) = biological target: T1, MetRS (T. brucei) (Trypanosoma brucei brucei, UniProt Q38C91); assay: MetRS (T. brucei) enzyme inhibition; type: biochemical
T1 sequence (Q38C91 1-773): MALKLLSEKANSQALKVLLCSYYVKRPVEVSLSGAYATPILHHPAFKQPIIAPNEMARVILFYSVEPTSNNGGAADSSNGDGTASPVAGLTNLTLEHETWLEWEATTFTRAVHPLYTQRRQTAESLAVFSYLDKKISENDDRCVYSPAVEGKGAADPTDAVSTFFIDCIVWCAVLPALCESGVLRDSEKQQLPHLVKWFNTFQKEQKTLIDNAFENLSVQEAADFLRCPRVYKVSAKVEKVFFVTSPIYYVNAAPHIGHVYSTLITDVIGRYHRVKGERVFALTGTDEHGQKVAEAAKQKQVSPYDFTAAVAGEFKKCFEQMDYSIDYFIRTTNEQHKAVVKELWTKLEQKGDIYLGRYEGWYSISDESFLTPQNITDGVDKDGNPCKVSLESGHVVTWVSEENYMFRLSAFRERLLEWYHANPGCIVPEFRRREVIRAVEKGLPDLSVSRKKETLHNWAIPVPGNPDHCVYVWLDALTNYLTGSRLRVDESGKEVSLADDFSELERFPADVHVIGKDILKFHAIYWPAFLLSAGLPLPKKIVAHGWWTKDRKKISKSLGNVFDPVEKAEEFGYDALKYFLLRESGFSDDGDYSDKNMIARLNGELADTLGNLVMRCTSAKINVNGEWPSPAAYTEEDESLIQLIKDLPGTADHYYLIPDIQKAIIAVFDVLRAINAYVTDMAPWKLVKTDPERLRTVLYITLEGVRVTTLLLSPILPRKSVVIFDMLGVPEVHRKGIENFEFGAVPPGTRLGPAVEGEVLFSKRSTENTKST

T. cruzi = T. cruzi growth inhibition; type: cell-based, Trypanosoma cruzi; conditions: read-out: (E) T. cruzi EC50
C. parvum = C. parvum growth inhibition; type: cell-based, Cryptosporidium parvum; conditions: read-out: (J) C. parvum EC50
[3] = system: E. faecium VRE (ATCC 51559); assay: MIC susceptibility testing; type: cell-based, Enterococcus faecium; conditions: E. faecium ATCC 51559; for MIC: Enterococcus faecium, read-out: (I) E. faecium (ATCC 51559) MIC
Text: Media and culture conditions. Mueller Hinton broth (MHB), cation adjusted Mueller Hinton broth (CA-MHB), and Brain Heart Infusion broth (BHI) were purchased from Becton Dickinson (Franklin Lakes, N.J.). Tryptic soy agar (TSA) plates, TSA with 5% sheep blood plates, and CA-MHB with 3% laked horse blood were purchased from Remel (San Diego, Calif.). MHB was used to assay all Staphylococcus aureus strains. CA-MHB was used for Staphylococcus epidermidis, Enterococcus faecalis, Enterococcus faecium, Escherichia coli, and Pseudomonas aeruginosa. CA-MHB supplemented with 3% laked horse blood was used for Streptococcus pneumoniae and Streptococcus pyogenes. Staphylococcus, Enterococcus, Escherichia, and Pseudomonas strains were cultured at 37° C. with ambient air. Streptococcus strains were cultured in 37° C. with 5% CO2. Separate conditions for radiolabeled precursor uptake assays are described below.
Susceptibility testing: Minimum inhibitory concentration (MIC) determinations were performed in triplicate in 96-well round bottom microtiter plates (Corning, Corning N.Y.) as described by the Clinical and Laboratory Standards Institute (CLSI). Serial two-fold dilutions of compounds were added to plates in 50 μL volumes. An additional 50 μL of media containing bacterial cells (1×10^6 CFUs/mL) was then added to each well. Maximum DMSO concentrations were 0.5%. Plates were incubated at 37° C. for at least 18 h before reading the susceptibility result by optical absorbance (OD600) using a BioTek ELx800. The lowest concentration causing ≥90% growth inhibition compared to the untreated control was recorded as the MIC (and also corresponded to the visual MIC). MICs were measured at least twice and the higher value (if different) was recorded herein.

Row | SMILES | EC50 (T. brucei; Trypanosoma brucei) [µM] | EC50 (T. brucei) [µM] | IC50 (MetRS (C. parvum)) [µM] | MIC [1] [µg/mL] | MIC [2] [µg/mL] | IC50 (MetRS (T. brucei)) [µM] | EC50 (T. cruzi; Trypanosoma cruzi) [µM] | EC50 (C. parvum; Cryptosporidium parvum) [µM] | MIC [3] [µg/mL] | (F) S. aureus (ATCC 29213) MIC [1] | EC50 (C. parvum) [µM] | EC50 (T. cruzi) [µM] | (I) E. faecium (ATCC 51559) MIC [3] [µg/mL] | (G) MRSA (ATCC33591) MIC [2] [µg/mL]
1 | O=c1n(Cc2nc3nc(F)ccc3[nH]2)cc(Cc2ccc(Cl)cc2Cl)n1CCO [Compound 2086, 4-[(2,4-dichlorophenyl)-methyl]-1-({5-fluoro-1H-imidazo[4,5-b]pyridin-2-yl}methyl)-3-(2-hydroxyethyl)-2,3-dihydro-1H-imidazol-2-one] | 0.00594 | 0.00764 | 0.0412 | 0.964 (≈ 2.21 µM) | > 2.5 | < 0.04 | 0.552 | – | – | – | – | – | – | –
2 | CCn1c(Cc2ccc(Cl)cc2Cl)cn(Cc2cc3nc(F)ccc3[nH]2)c1=O [Compound 2112, 5-(2,4-dichlorobenzyl)-1-ethyl-3-((5-fluoro-1H-pyrrolo[3,2-b]pyridin-2-yl)methyl)-1H-imidazol-2(3H)-one] | 0.00956 | – | < 0.04 | 0.254 (≈ 0.606 µM) | 0.405 (≈ 0.966 µM) | < 0.04 | 0.176 | 0.62 | – | – | – | – | – | –
3 | COc1ccc(-c2ccc(N)c3nc(Cc4nc5nc(Cl)ccc5[nH]4)cn23)c(Cl)c1 [Compound 2171, 2-({5-chloro-1H-imidazo[4,5-b]pyridin-2-yl}methyl)-5-(2-chloro-4-methoxyphenyl)imidazo[1,2-a]pyridin-8-amine] | 0.029 | – | 0.0753 | 1.16 (≈ 2.64 µM) | 1.87 (≈ 4.26 µM) | < 0.04 | 0.302 | – | – | – | – | – | – | –
4 | O=c1n(Cc2nc3nc(Cl)ccc3[nH]2)cc(Cc2ccc(Cl)cc2Cl)n1CC1(O)CC1 [Compound 2225, 1-({5-chloro-1H-imidazo[4,5-b]pyridin-2-yl}methyl)-4-[(2,4-dichlorophenyl)-methyl]-3-[(1-hydroxycyclopropyl)methyl]-2,3-dihydro-1H-imidazol-2-one] | 0.0145 | 0.0269 | 0.0492 | > 2.5 | – | – | 0.245 | 1.84 | 1.52 (≈ 3.17 µM) | 3.02 µg/mL | – | – | – | –
5 | COc1ccc(-c2cccc3c2CN(Cc2nc4c(N)ncnc4[nH]2)C3=O)c(Cl)c1 [Compound 2239, 2-((6-amino-9H-purin-8-yl)methyl)-4-(2-chloro-4-methoxyphenyl)isoindolin-1-one] | 0.267 | – | < 0.04 | > 2 | > 2 | < 0.04 | 3.88 | > 2 | – | – | – | – | – | –
6 | COc1ccc(-c2cccc3nn(Cc4nc5nc(Cl)ccc5[nH]4)cc23)c(Cl)c1 [Compound 2245, 2-({5-chloro-1H-imidazo[4,5-b]pyridin-2-yl}methyl)-4-(2-chloro-4-methoxyphenyl)-2H-indazole] | 0.0254 | 0.0173 | < 0.04 | 0.0924 (≈ 0.218 µM) | 0.0378 (≈ 0.0891 µM) | – | – | > 2 | – | 0.0526, μg/ml and 0.0902 μg/ml | – | – | – | –
7 | COc1cc(Cl)c(-c2nccc3nc(Cc4nc5nc(Cl)ccc5[nH]4)cn23)cc1OC [Compound 2246, 2-({5-chloro-1H-imidazo[4,5-b]pyridin-2-yl}methyl)-5-(2-chloro-4,5-dimethoxyphenyl)imidazo[1,2-c]pyrimidine] | 0.00668 | 0.00568 | 0.0556 | 0.277 (≈ 0.608 µM) | 0.115 (≈ 0.253 µM) | – | 0.0179 | 0.359 | – | 0.497 µg/mL | 0.3 | 0.0206 | – | –
8 | COc1ccc(Cc2cn(Cc3nc4c(C)c(Cl)ccc4[nH]3)c(=O)n2CC(C)(C)O)c(Cl)c1 [Compound 2248, 4-[(2-chloro-4-methoxyphenyl)methyl]-1-[(5-chloro-4-methyl-1H-1,3-benzodiazol-2-yl)methyl]-3-(2-hydroxy-2-methylpropyl)-2,3-dihydro-1H-imidazol-2-one] | 0.0818 | – | 0.0408 | – | – | – | 0.491 | > 2 | 1.98 (≈ 4.05 µM) | – | – | – | 2.23 | –
9 | COc1ccc(-c2nccn3c(=S)n(Cc4nc5nc(Cl)ccc5[nH]4)cc23)c(Cl)c1 [Compound 2250, 2-({5-chloro-1H-imidazo[4,5-b]pyridin-2-yl}methyl)-8-(2-chloro-4-methoxyphenyl)-2H,3H-imidazo[1,5-a]pyrazine-3-thione] | 0.0289 | – | – | – | – | – | – | – | 1.35 (≈ 2.95 µM) | – | – | – | 1.01 | –
10 | COc1ccc(-c2cccc3c2CN(Cc2nc4nc(C)nc(N)c4[nH]2)C3=O)c(Cl)c1 [Compound 2251, 2-((6-amin0-2-methyl-7H-purin-8-yl)methyl)-4-(2-chloro-4-methoxyphenyl)isoindolin-1-one] | 0.166 | – | < 0.04 | – | – | – | 0.811 | > 2 | > 4 | – | – | – | – | –
11 | COc1ccc(-c2cccc3c2CN(Cc2nc4nc(C(F)(F)F)nc(N)c4[nH]2)C3=O)c(Cl)c1 [Compound 2252, 2-((6-amin0-2-(trifluoromethyl)-7H-purin-8-yl)methyl)-4-(2-chloro-4-methoxyphenyl)isoindolin-1-one] | 0.268 | – | 0.431 | – | > 2 | – | 0.63 | – | – | – | – | – | – | –
12 | COc1ccc(-c2nccn3c(=O)n(Cc4nc5c(Cl)c(Cl)ccc5[nH]4)cc23)c(Cl)c1 [Compound 2254, 8-(2-chloro-4-methoxyphenyl)-2-[(6,7-dichloro-1H-1,3-benzodiazol-2-yl)methyl]-2H,3H-imidazo[1,5-a]pyrazin-3-one] | 0.168 | – | 0.138 | – | > 2 | – | – | – | – | – | – | – | – | –
13 | COc1cc(Cl)c(-c2nccc3nc(Cc4nc5c(Cl)c(Cl)ccc5[nH]4)cn23)cc1OC [Compound 2255, 6,7-dichlor0-2-{[5-(2-chloro-4,5-dimethoxyphenyl)imidazo[1,2-c]pyrimidin-2-yl]methyl}-1H-1,3-benzodiazole] | 0.0715 | – | 0.277 | 1.82 (≈ 3.72 µM) | 1.82 (≈ 3.72 µM) | – | 0.165 | > 2 | – | 2.93 µg/mL | – | – | – | –
14 | COc1ccc(-c2nccc3nc(Cc4nc5ccc(Cl)nc5[nH]4)cn23)c(Cl)c1 [Compound 2256, 2-({5-chloro-1H-imidazo[4,5-b]pyridin-2-yl}methyl)-5-(2-chloro-4-methoxyphenyl)imidazo[1,2-c]pyrimidine] | 0.0123 | 0.0203 | – | – | > 2 | – | 0.0765 | 1.94 | – | – | – | 0.0772 | – | 1.59
15 | COc1ccc(Cc2cn(Cc3nc4nc(Br)ccc4[nH]3)c(=O)n2CC(F)F)c(Cl)c1 [Compound 2257, 1-({5-bromo-1H-imidazo[4,5-b]pyridin-2-yl}methyl)-4-[(2-chloro-4-methoxyphenyl)methyl]-3-(2,2-difluoroethyl)-2,3-dihydro-1H-imidazol-2-one] | – | – | – | – | 0.876 (≈ 1.71 µM) | – | 0.00803 | 0.31 | – | – | 0.219 | 0.00817 | – | –
